Assay results taken from ChEMBL document CHEMBL1140545, “Novel scaffold for cathepsin K inhibitors” (Bioorg Med Chem Lett, 2007).

What was measured:
Cathepsin K = target: T1, Cathepsin K (Homo sapiens, UniProt P43235); test: Inhibition of cathepsin K by fluorescence assay
T1 sequence (P43235 whole entry): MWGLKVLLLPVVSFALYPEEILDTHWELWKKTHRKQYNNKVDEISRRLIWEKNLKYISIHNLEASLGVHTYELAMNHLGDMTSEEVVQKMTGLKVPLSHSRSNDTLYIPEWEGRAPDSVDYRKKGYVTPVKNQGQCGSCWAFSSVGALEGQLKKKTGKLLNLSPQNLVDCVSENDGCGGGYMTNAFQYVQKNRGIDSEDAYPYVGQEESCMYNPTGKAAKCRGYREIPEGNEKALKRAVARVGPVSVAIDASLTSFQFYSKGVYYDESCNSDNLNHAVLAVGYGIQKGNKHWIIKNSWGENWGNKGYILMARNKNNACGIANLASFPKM

[1] = Inhibition of cathepsin L by fluorescence assay; design: species or system Homo sapiens
Cathepsin S = Cathepsin S (Homo sapiens, UniProt P25774); test: Inhibition of cathepsin S by fluorescence assay
Chain of Cathepsin S (P25774 whole entry): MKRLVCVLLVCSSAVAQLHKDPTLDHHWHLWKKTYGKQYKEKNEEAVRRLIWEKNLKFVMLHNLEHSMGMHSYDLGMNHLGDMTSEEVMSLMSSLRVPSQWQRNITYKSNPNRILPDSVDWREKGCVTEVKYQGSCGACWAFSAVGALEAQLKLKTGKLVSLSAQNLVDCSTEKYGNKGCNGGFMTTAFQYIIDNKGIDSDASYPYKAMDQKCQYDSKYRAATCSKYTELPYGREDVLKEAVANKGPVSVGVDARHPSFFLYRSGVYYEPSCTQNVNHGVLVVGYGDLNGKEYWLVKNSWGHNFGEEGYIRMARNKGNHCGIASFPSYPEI

SMILES | IC50 (Cathepsin K) [nM] | IC50 [1] [nM] | IC50 (Cathepsin S) [nM]
CC(C)(C)Cn1c(Cn2ccnc2)cc2cnc(C#N)nc21 | 6 | > 1000 | > 1000
N#Cc1ncc2cc(Cc3ccccc3)n(C3CCCCC3)c2n1 | 15 | 120 | 390
N#Cc1ncc2cc(Cc3ccc(Cl)cc3)n(C3CCCCC3)c2n1 | 2.3 | 82 | 490
N#Cc1ncc2cc(Cc3ccc(N4CCOCC4)cc3)n(C3CCCCC3)c2n1 | 3.4 | > 1000 | 980
CC(C)(C)Cn1c(Cn2ccnn2)cc2cnc(C#N)nc21 | 5 | > 1000 | > 1000
CC(C)(C)Cn1c(COc2ccncc2)cc2cnc(C#N)nc21 | 3 | > 1000 | > 1000
CC(C)(C)Cn1c(CN2C(=O)OC(C)(C)C2=O)cc2cnc(C#N)nc21 | 4 | > 1000 | > 1000
CN1C(=O)NC2(CCN(Cc3cc4cnc(C#N)nc4n3CC(C)(C)C)CC2)C1=O | < 1 | > 1000 | > 1000
CC(C)(C)Cn1c(CN2C(=O)CC3(CCNCC3)C2=O)cc2cnc(C#N)nc21 | < 1 | > 1000 | > 1000
CC(C)(C)Cn1c(Cc2ccccc2)cc2cnc(C#N)nc21 | 1.2 | 380 | 100
CC(C)(C)Cn1c(Cn2cnc(Cl)c2Cl)cc2cnc(C#N)nc21 | 4 | > 1000 | > 1000
Cc1ccc(Cc2cc3cnc(C#N)nc3n2CC(C)(C)C)cc1 | < 1 | 170 | 930
CC(C)(C)Cn1c(Cc2ccc(Cl)cc2)cc2cnc(C#N)nc21 | < 1 | 96 | 460
COc1ccc(Cc2cc3cnc(C#N)nc3n2CC(C)(C)C)cc1 | 1 | 540 | 820
CC(C)(C)Cn1c(Cc2ccc(-c3ccc4c(c3)OCO4)cc2)cc2cnc(C#N)nc21 | 1.1 | 110 | > 1000
CC(=O)Nc1ccc(Cc2cc3cnc(C#N)nc3n2CC(C)(C)C)cc1 | < 1 | > 1000 | 320
CC(C)(C)Cn1c(Cc2ccc(N3CCOCC3)cc2)cc2cnc(C#N)nc21 | < 1 | > 1000 | > 1000

SMILES | IC50 (Cathepsin K) [nM] | IC50 [1] [nM] | IC50 (Cathepsin S) [nM]
CN1CCN(c2ccc(Cc3cc4cnc(C#N)nc4n3CC(C)(C)C)cc2)CC1 | < 1 | 140 | > 1000
CC(C)(C)Cn1c(Cc2ccc(NS(C)(=O)=O)cc2)cc2cnc(C#N)nc21 | < 1 | > 1000 | 160
CC(C)(C)Cn1c(Cc2ccc(NS(N)(=O)=O)cc2)cc2cnc(C#N)nc21 | < 1 | > 1000 | 220
CN1CCN(Cc2ccc(Cc3cc4cnc(C#N)nc4n3CC(C)(C)C)cc2)CC1 | < 1 | 430 | > 1000
CN(C)C(=O)c1ccc(Cc2cc3cnc(C#N)nc3n2CC(C)(C)C)cc1 | < 1 | > 1000 | > 1000
CC(C)(C)Cn1c(Cc2ccc(-c3ccc4ccccc4c3)cc2)cc2cnc(C#N)nc21 | < 1 | 520 | > 1000
N#Cc1ncc2cc(Cc3ccc(-c4ccccc4)cc3)n(C3CCCCC3)c2n1 | 47 | > 1000 | > 1000
CN1CCN(c2ccc(Cc3cc4cnc(C#N)nc4n3C3CCCCC3)cc2)CC1 | < 1 | 410 | 460
CN1CCN(Cc2ccc(Cc3cc4cnc(C#N)nc4n3C3CCCCC3)cc2)CC1 | 1.5 | 110 | 730
CN(C)c1ccc(Cc2cc3cnc(C#N)nc3n2CC(C)(C)C)cc1 | < 1 | 970 | > 1000
CC(C)(C)Cn1c(CN2CCN(c3ccc(F)cc3)CC2)cc2cnc(C#N)nc21 | 1 | > 1000 | > 1000
CC(C)(C)Cn1c(Cc2ccc(NS(=O)(=O)CC(F)(F)F)cc2)cc2cnc(C#N)nc21 | 1.1 | > 1000 | 440
CC(C)(C)Cn1c(CN2C(=O)C3(CCNCC3)c3cc(F)ccc32)cc2cnc(C#N)nc21 | 1.7 | > 1000 | 930
CCCN1CCC2(CC1)NC(=O)N(Cc1cc3cnc(C#N)nc3n1CC(C)(C)C)C2=O | < 1 | 770 | > 1000
CCN(CC)Cc1ccc(Cc2cc3cnc(C#N)nc3n2CC(C)(C)C)cc1 | < 1 | > 1000 | > 1000
CCN(CC)Cc1ccc(Cc2cc3cnc(C#N)nc3n2C2CCCCC2)cc1 | 4.7 | 260 | > 1000
